Data on 30 compounds can be found in US20110224210A1, “NOVEL BIS-AMIDES AS ANTI-MALARIAL AGENTS” (priority 2008, published 2011).

In the assay the test system is P. falciparum K1 (strain resistant to chloroquine and pyrimethamine), erythrocytic stages. Kind of assay: Plasmodium falciparum in vitro assay, [3H] hypoxanthine incorporation. In kind it is cell-based. Conditions: Plasmodium falciparum, K1, P. falciparum strain K1; [3H] hypoxanthine incorporation; read-out: IC50 (nM) on K1. The method in brief:
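K1 strain parasites grown in human red cells, 2.5% haematocrit, 0.3% parasitaemia, 37 °C, 4% CO2/3% O2; compounds in seven serial doubling dilutions.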

Structures are written as SMILES.

In general, IC50 refers to the concentration that gives 50% inhibition.

As to `COCCN(C)C(=O)[C@H](Cc1ccccc1)N(Cc1ccc(-c2cncnc2)cc1)C(=O)C=Cc1sc(C)nc1C` [Example 121, (S)-3-(2,4-Dimethyl-thiazol-5-yl)-N-{1-[(2-methoxy-ethyl)-methyl-carbamoyl]-2-phenyl-ethyl}-N-(4-pyrimidin-5-yl-benzyl)-acrylamide], the IC50 came out at 28 nM.
Consider `COCCN(C)C(=O)[C@H](Cc1ccccc1)N(Cc1ccc(-c2cncnc2)cc1)C(=O)C=Cc1csc(C)n1` [Example 122, (S)-N-{1-[(2-Methoxy-ethyl)-methyl-carbamoyl]-2-phenyl-ethyl}-3-(2-methyl-thiazol-4-yl)-N-(4-pyrimidin-5-yl-benzyl)-acrylamide], for which the IC50 is 156 nM.
`COCCN(C)C(=O)[C@H](Cc1ccccc1)N(Cc1ccc(-c2cncnc2)cc1)C(=O)C=Cc1cc(C)on1` [Example 123, (S)-N-{1-[(2-Methoxy-ethyl)-methyl-carbamoyl]-2-phenyl-ethyl}-3-(5-methyl-isoxazol-3-yl)-N-(4-pyrimidin-5-yl-benzyl)-acrylamide]: the IC50 was 296 nM.
As to `COCCN(C)C(=O)[C@H](Cc1ccccc1)N(Cc1ccc(-c2cncnc2)cc1)C(=O)C=Cc1c(C)noc1C` [Example 124, (S)-3-(3,5-Dimethyl-isoxazol-4-yl)-N-{1-[(2-methoxy-ethyl)-methyl-carbamoyl]-2-phenyl-ethyl}-N-(4-pyrimidin-5-yl-benzyl)-acrylamide], the IC50 was found to be 110 nM.
In the case of `COCCN(C)C(=O)[C@H](Cc1ccccc1)N(Cc1ccc(-c2cncnc2)cc1)C(=O)C=Cc1csnn1` [Example 125, (S)-N-{1-[(2-Methoxy-ethyl)-methyl-carbamoyl]-2-phenyl-ethyl}-N-(4-pyrimidin-5-yl-benzyl)-3-[1,2,3]thiadiazol-4-yl-acrylamide], the concentration for half-maximal inhibition (IC50) turned out to be 439 nM.
As to `COCCN(C)C(=O)[C@H](Cc1ccccc1)N(Cc1ccc(-c2cncnc2)cc1)C(=O)C=Cc1ccc(OC)nn1` [Example 126, (S)-N-{1-[(2-Methoxy-ethyl)-methyl-carbamoyl]-2-phenyl-ethyl}-3-(6-methoxy-pyridazin-3-yl)-N-(4-pyrimidin-5-yl-benzyl)-acrylamide], the concentration for half-maximal inhibition (IC50) was determined as 160 nM.
On to `COCCN(C)C(=O)[C@H](Cc1ccccc1)N(Cc1ccc(-c2cncnc2)cc1)C(=O)C=Cc1ccc(Cl)cn1` [Example 127, (S)-3-(5-Chloro-pyridin-2-yl)-N-{1-[(2-methoxy-ethyl)-methyl-carbamoyl]-2-phenyl-ethyl}-N-(4-pyrimidin-5-yl-benzyl)-acrylamide], for which the 50% inhibitory concentration (IC50) turned out to be 21 nM.
Regarding `COCCN(C)C(=O)[C@H](Cc1ccccc1)N(Cc1ccc(-c2cncnc2)cc1)C(=O)C=Cc1ccc(Cl)nc1` [Example 128, (S)-3-(6-Chloro-pyridin-3-yl)-N-{1-[(2-methoxy-ethyl)-methyl-carbamoyl]-2-phenyl-ethyl}-N-(4-pyrimidin-5-yl-benzyl)-acrylamide], the IC50 came to 94 nM.
Turning to `COCCN(C)C(=O)[C@H](Cc1ccccc1)N(Cc1ccc(-c2cncnc2)cc1)C(=O)C=Cc1cnc(OC)nc1` [Example 129, (S)-N-{1-[(2-Methoxy-ethyl)-methyl-carbamoyl]-2-phenyl-ethyl}-3-(2-methoxy-pyrimidin-5-yl)-N-(4-pyrimidin-5-yl-benzyl)-acrylamide], the half-inhibitory concentration (IC50) came out at 19 nM.
For the compound `COCCN(C)C(=O)[C@H](Cc1ccccc1)N(Cc1ccc(-c2cncnc2)cc1)C(=O)C=Cc1ccc(C(F)(F)F)cn1` [Example 130, (S)-N-{1-[(2-Methoxy-ethyl)-methyl-carbamoyl]-2-phenyl-ethyl}-N-(4-pyrimidin-5-yl-benzyl)-3-(5-trifluoromethyl-pyridin-2-yl)-acrylamide], the IC50 was less than 8 nM.
For `COCCN(C)C(=O)[C@H](Cc1ccccc1)N(Cc1ccc(-c2cccnc2)cc1)C(=O)C=Cc1cnc(C)n1C` [Example 131, (S)-3-(2,3-Dimethyl-3H-imidazol-4-yl)-N-{1-[(2-methoxy-ethyl)-methyl-carbamoyl]-2-phenyl-ethyl}-N-(4-pyridin-3-yl-benzyl)-acrylamide], the IC50 was 282 nM.
`COCCN(C)C(=O)[C@H](Cc1ccccc1)N(Cc1ccc(-c2cccnc2)cc1)C(=O)C=Cc1sc(C)nc1C` [Example 132, (S)-3-(2,4-Dimethyl-thiazol-5-yl)-N-{1-[(2-methoxy-ethyl)-methyl-carbamoyl]-2-phenyl-ethyl}-N-(4-pyridin-3-yl-benzyl)-acrylamide]: the half-maximal inhibitory concentration (IC50) stood at 28 nM.
Then `COCCN(C)C(=O)[C@H](Cc1ccccc1)N(Cc1ccc(-c2cccnc2)cc1)C(=O)C=Cc1nc(C)oc1C` [Example 133, (S)-3-(2,5-Dimethyl-oxazol-4-yl)-N-{1-[(2-methoxy-ethyl)-methyl-carbamoyl]-2-phenyl-ethyl}-N-(4-pyridin-3-yl-benzyl)-acrylamide], with 82 nM; and `COCCN(C)C(=O)[C@H](Cc1ccccc1)N(Cc1ccc(-c2cccnc2)cc1)C(=O)C=Cc1ccc(Cl)nc1` [Example 134, (S)-3-(6-Chloro-pyridin-3-yl)-N-{1-[(2-methoxy-ethyl)-methyl-carbamoyl]-2-phenyl-ethyl}-N-(4-pyridin-3-yl-benzyl)-acrylamide], with 33 nM.
In the case of `COCCN(C)C(=O)[C@H](Cc1ccccc1)N(Cc1ccc(-c2cccnc2)cc1)C(=O)C=Cc1ccc(OC)nc1` [Example 135, (S)-N-{1-[(2-Methoxy-ethyl)-methyl-carbamoyl]-2-phenyl-ethyl}-3-(6-methoxy-pyridin-3-yl)-N-(4-pyridin-3-yl-benzyl)-acrylamide], the half-inhibitory concentration (IC50) is less than 8 nM.
Consider `CN(C)C1CCN(C(=O)[C@H](Cc2ccccc2)N(Cc2ccc(N3CCOCC3)nc2)C(=O)C=Cc2ccc(C(F)(F)F)cc2)CC1` [Example 136, (S)-N-[1-Benzyl-2-(4-dimethylamino-piperidin-1-yl)-2-oxo-ethyl]-N-(6-morpholin-4-yl-pyridin-3-ylmethyl)-3-(4-trifluoromethyl-phenyl)-acrylamide], for which the IC50 was 74 nM.
Consider `O=C([C@H](Cc1ccccc1)N(Cc1ccc(N2CCOCC2)nc1)C(=O)C=Cc1ccc(C(F)(F)F)cc1)N1CCC(Cc2ccccc2)CC1` [Example 143, (S)-N-[1-Benzyl-2-(4-benzyl-piperidin-1-yl)-2-oxo-ethyl]-N-(6-morpholin-4-yl-pyridin-3-ylmethyl)-3-(4-trifluoromethyl-phenyl)-acrylamide], for which the half-maximal inhibitory concentration (IC50) stood at 5 nM.
`O=C([C@H](Cc1ccccc1)N(Cc1ccc(N2CCOCC2)nc1)C(=O)C=Cc1ccc(C(F)(F)F)nc1)N1CCC(Cc2ccccc2)CC1` [Example 144, (S)-N-[1-Benzyl-2-(4-benzyl-piperidin-1-yl)-2-oxo-ethyl]-N-(6-morpholin-4-yl-pyridin-3-ylmethyl)-3-(6-trifluoromethyl-pyridin-3-yl)-acrylamide]: the IC50 is 24 nM.
Consider `COc1ccc(C=CC(=O)N(Cc2ccc(N3CCOCC3)nc2)[C@@H](Cc2ccccc2)C(=O)N2CCC(Cc3ccccc3)CC2)cc1` [Example 145, (S)-N-[1-Benzyl-2-(4-benzyl-piperidin-1-yl)-2-oxo-ethyl]-3-(4-methoxy-phenyl)-N-(6-morpholin-4-yl-pyridin-3-ylmethyl)-acrylamide], for which the IC50 amounted to 5 nM.
With `Cc1ccc(C=CC(=O)N(Cc2ccc(N3CCOCC3)nc2)[C@@H](Cc2ccccc2)C(=O)N2CCC(Cc3ccccc3)CC2)cc1` [Example 146, (S)-N-[1-Benzyl-2-(4-benzyl-piperidin-1-yl)-2-oxo-ethyl]-N-(6-morpholin-4-yl-pyridin-3-ylmethyl)-3-p-tolyl-acrylamide] the figure was 9 nM; with `Cc1ccc(C=CC(=O)N(Cc2ccc(N3CCOCC3)nc2)[C@@H](Cc2ccccc2)C(=O)N2CCOCC2)cc1` [Example 147, (S)-N-(1-Benzyl-2-morpholin-4-yl-2-oxo-ethyl)-N-(6-morpholin-4-yl-pyridin-3-ylmethyl)-3-p-tolyl-acrylamide], 77 nM; with `COc1ccc(C=CC(=O)N(Cc2ccc(N3CCOCC3)nc2)[C@@H](Cc2ccccc2)C(=O)N2CCOCC2)cc1` [Example 148, (S)-N-(1-Benzyl-2-morpholin-4-yl-2-oxo-ethyl)-3-(4-methoxy-phenyl)-N-(6-morpholin-4-yl-pyridin-3-ylmethyl)-acrylamide], 65 nM.
As to `O=C([C@H](Cc1ccccc1)N(Cc1ccc(-c2ccccn2)cc1)C(=O)C=Cc1ccc(C(F)(F)F)cc1)N1CCc2cccnc2C1` [Example 149, (S)-N-[1-Benzyl-2-(5,8-dihydro-6H-[1,7]naphthyridin-7-yl)-2-oxo-ethyl]-N-(4-pyridin-2-yl-benzyl)-3-(4-trifluoromethyl-phenyl)-acrylamide], the IC50 was 26 nM.
`CCCCN(CCCC)CCNC(=O)[C@H](Cc1ccccc1)N(Cc1ccc(-c2ccccn2)cc1)C(=O)C=Cc1ccc(C(F)(F)F)cc1` [Example 150]: the 50% inhibitory concentration (IC50) turned out to be 319 nM.
On to `O=C(NCCN1CCOCC1)[C@H](Cc1ccccc1)N(Cc1ccc(-c2ccccn2)cc1)C(=O)C=Cc1ccc(C(F)(F)F)cc1` [Example 151], for which the IC50 turned out to be 373 nM.
With `O=C(NCCN1CCCCC1)[C@H](Cc1ccccc1)N(Cc1ccc(-c2ccccn2)cc1)C(=O)C=Cc1ccc(C(F)(F)F)cc1` [Example 153], the IC50 is 268 nM.
Regarding `O=C(NCCN1CCCCCC1)[C@H](Cc1ccccc1)N(Cc1ccc(-c2ccccn2)cc1)C(=O)C=Cc1ccc(C(F)(F)F)cc1` [Example 154], the IC50 came to 420 nM.
With `CC(C)N(CCNC(=O)[C@H](Cc1ccccc1)N(Cc1ccc(-c2ccccn2)cc1)C(=O)C=Cc1ccc(C(F)(F)F)cc1)C(C)C` [Example 155], the IC50 is 327 nM.
Then `CN(C)CCNC(=O)[C@H](Cc1ccccc1)N(Cc1ccc(-c2ccccn2)cc1)C(=O)C=Cc1ccc(C(F)(F)F)cc1` [Example 156], with 382 nM; and `COCCN(C)C(=O)[C@H](Cc1ccccc1)N(Cc1ccc(N2CCOCC2)nc1)C(=O)C=Cc1ccc(C(F)(F)F)cc1` [Example 157, (S)-N-{1-[(2-Methoxy-ethyl)-methyl-carbamoyl]-2-phenyl-ethyl}-N-(6-morpholin-4-yl-pyridin-3-ylmethyl)-3-(4-trifluoromethyl-phenyl)-acrylamide], with 10 nM.
